Measurements as given in ChEMBL document CHEMBL1649431, “Molecular mechanisms of macrolide resistance in clinical isolates of Mycoplasma pneumoniae from China” (2009).
In brackets after ≈: the same amount, converted by molar mass.

Assays:
[1] = test system: Mycoplasmoides pneumoniae; experiment: Antimicrobial activity against Mycoplasma pneumoniae FH by microdilution method; format: functional
[2] = test system: Mycoplasmoides pneumoniae; experiment: Antimicrobial activity against Mycoplasma pneumoniae clinical isolate harboring point mutations in 23S rRNA at positions 2063 and 2064 isolated from human respiratory tract by microdilution method; format: functional

Compound	MIC [1]	MIC [2]	MIC50 [2]	MIC90 [2]
CO[C@@H]1[C@@H](O[C@@H]2O[C@H](C)[C@@H](O[C@H]3C[C@@](C)(O)[C@@H](OC(=O)CC(C)C)[C@H](C)O3)[C@H](N(C)C)[C@H]2O)[C@@H](CC=O)C[C@@H](C)[C@@H](O)/C=C/C=C/C[C@@H](C)OC(=O)C[C@H]1OC(C)=O [JOSAMYCIN]	0.1 µg/mL (≈ 0.121 µM)	0.01 µg/mL (≈ 0.0121 µM)	32 µg/mL (≈ 38.6 µM)	64 µg/mL (≈ 77.3 µM)
CC[C@H]1OC(=O)[C@H](C)[C@@H](O[C@H]2C[C@@](C)(OC)[C@@H](O)[C@H](C)O2)[C@H](C)[C@@H](O[C@@H]2O[C@H](C)C[C@H](N(C)C)[C@H]2O)[C@](C)(O)C[C@@H](C)C(=O)[C@H](C)[C@@H](O)[C@]1(C)O [ERYTHROMYCIN]	0.01 µg/mL (≈ 0.0136 µM)	0.01 µg/mL (≈ 0.0136 µM)	128 µg/mL (≈ 174 µM)	512 µg/mL (≈ 698 µM)
CC[C@H]1OC(=O)[C@H](C)[C@@H](O[C@H]2C[C@@](C)(OC)[C@@H](O)[C@H](C)O2)[C@H](C)[C@@H](O[C@@H]2O[C@H](C)C[C@H](N(C)C)[C@H]2O)[C@](C)(O)C[C@@H](C)CN(C)[C@H](C)[C@@H](O)[C@]1(C)O [AZITHROMYCIN]	0.001 µg/mL (≈ 0.00134 µM)	0.001 µg/mL (≈ 0.00134 µM)	128 µg/mL (≈ 171 µM)	256 µg/mL (≈ 342 µM)
